Measured values published in the NIST ThermoML archive (doi:10.1021/acs.jced.5b00077).

Legend:
[1] = refractive index (Na D-line) (dimensionless); conditions: 101.33 kPa, Liquid, Standard Abbe refractometry
[2] = for surface tension liquid-gas: Ring tensiometer; for electrical conductivity: 101.33 kPa, Liquid, Alternating current cell with electrodes

CC(=O)[O-].[NH3+]CCCO [3-hydroxypropylammonium acetate]
Conditions | electrical conductivity, [2] [S/m] | refractive index, [1] | surface tension liquid-gas, [2] [mN/m]
293.15 K | 0.01 | 1.4663 | 48
298.15 K | 0.01 | 1.4652 | 47.5
303.15 K | 0.01 | 1.464 | 47
308.15 K | 0.02 | 1.4628 | 46.5
313.15 K | 0.02 | 1.4616 | 46
318.15 K | 0.03 | 1.4605 | 45.5
323.15 K | 0.04 | 1.4593 | 45
328.15 K | 0.05 | 1.4581 | 44.5
333.15 K | 0.06 | 1.457 | 44

O=C[O-].[NH3+]CCCO [3-hydroxypropylammonium formate]
Conditions | electrical conductivity, [2] [S/m] | refractive index, [1] | surface tension liquid-gas, [2] [mN/m]
293.15 K | 0.11 | 1.4678 | 56.9
298.15 K | 0.14 | 1.4667 | 56.4
303.15 K | 0.17 | 1.4655 | 55.9
308.15 K | 0.21 | 1.4644 | 55.4
313.15 K | 0.26 | 1.4632 | 54.9
318.15 K | 0.3 | 1.4621 | 54.4
323.15 K | 0.36 | 1.461 | 54
328.15 K | 0.42 | 1.4598 | 53.5
333.15 K | 0.49 | 1.4586 | 53

O=C([O-])C(F)(F)F.[NH3+]CCCO [3-hydroxypropylammonium trifluoroacetate]
Conditions | electrical conductivity, [2] [S/m] | refractive index, [1] | surface tension liquid-gas, [2] [mN/m]
293.15 K | 0.03 | 1.4113 | 38.2
298.15 K | 0.04 | 1.4101 | 37.8
303.15 K | 0.06 | 1.409 | 37.4
308.15 K | 0.09 | 1.4078 | 37
313.15 K | 0.12 | 1.4067 | 36.5
318.15 K | 0.16 | 1.4055 | 36.1
323.15 K | 0.2 | 1.4044 | 35.7
328.15 K | 0.25 | 1.4032 | 35.3
333.15 K | 0.31 | 1.402 | 34.9

CC(=O)[O-].CCC[NH3+] [propylammonium acetate]
Conditions | electrical conductivity, [2] [S/m] | refractive index, [1] | surface tension liquid-gas, [2] [mN/m]
293.15 K | 0.04 | 1.4383 | 33.5
298.15 K | 0.06 | 1.4369 | 33.1
303.15 K | 0.08 | 1.4356 | 32.7
308.15 K | 0.1 | 1.4341 | 32.2
313.15 K | 0.14 | 1.4328 | 31.8
318.15 K | 0.17 | 1.4313 | 31.4
323.15 K | 0.22 | 1.4301 | 31
328.15 K | 0.27 | 1.4287 | 30.6
333.15 K | 0.33 | 1.4273 | 30.2

CCC[NH3+].O=C[O-] [propylammonium formate]
Conditions | electrical conductivity, [2] [S/m] | refractive index, [1] | surface tension liquid-gas, [2] [mN/m]
293.15 K | 0.31 | 1.44 | 37.8
298.15 K | 0.36 | 1.4386 | 37.4
303.15 K | 0.44 | 1.4372 | 37
308.15 K | 0.51 | 1.4356 | 36.6
313.15 K | 0.59 | 1.4341 | 36.2
318.15 K | 0.68 | 1.4326 | 35.8
323.15 K | 0.78 | 1.431 | 35.4
328.15 K | 0.87 | 1.4295 | 35
333.15 K | 1 | 1.428 | 34.6
